Measured values as given in US12616203B2, “Use of 3-isoxazolidinones compounds as selective herbicides” (FMC Corporation, priority 2014, dated 2026).
“Also recorded” adds a separate entry of the source.

Tests used:
Wild oat = assay: Ex12 PRE 2,4-DC + dimethenamid-P, % control 28 DAT, Colby; format: in vivo, Avena fatua
Procedure: The tested weeds include: wild buckwheat (Polygonum convolvulus, POLCO), velvetleaf (Abutilon theophrasti, ABUTH), cheat (Bromus secalinus, BROSE), wild oat (Avena fatua, AVEFA), radish (Raphanus sativus, RAPSN), corn poppy (Papaver rhoeas, PAPRH), yellow foxtail (Setaria pumila, SETLU), Italian ryegrass (Lolium perenne ssp. multiflorum, LOLMU). The tested crop was Oilseed rape.
This greenhouse study was conducted to assess the preemergence (PRE) weed control and oilseed rape tolerance with 2,4 DC (CS 36.7%) and dimethenamid-P (Outlook®, 63.9%) tank-mix combinations.
Metazachlor (Butisan, 43.1%) plus dimethenamid-P applied as tank mix at 500 g each was applied as commercial standard. Treatments were replicated 3 times and flats were watered after planting but before the treatment and then lightly watered after treatment application. Thereafter flats were watered and fertilized routinely.

weeds; Wheat and canola [1] = assay: Ex28 PRE greenhouse; format: in vivo; settings: 28 DAT, rate in the words
Text: The tested weeds in this study are redroot pigweed (Amaranth retroflexus, AMARE), Italian ryegrass (Lolium perenne. multiflorum, LOLMU), wild mustard (Sinapis arvensis, SINAR), annual bluegrass (Poa annua, POAAN), wild oat (Avena fatua, AVEFA), blackgrass (Alopecurus myosuroides, ALOMY), common lambsquarters (Chenopodium album, CHEAL), littleseed canarygrass (Phalaris minor, PHAMI), common chickweed (Stellaria media, STEME), corn poppy (Papaver rhoeas, PAPRH), and silky windgrass (Apera spica-venti, APESV). The tested crops are wheat and canola.
Additionally, 2,4 DC was applied alone at 400 g ai/ha.
Treatments were applied before the emergence of redroot pigweed, Italian ryegrass, wild oat, blackgrass, littleseed canarygrass, common chickweed, common lambsquarters, corn poppy, wild mustard, annual bluegrass, silky windgrass, canola, and wheat. […] Flats were watered and fertilized routinely after treatment application.

weeds; Corn = assay: Ex25 PRE greenhouse; format: in vivo; settings: rate in the words
Text: The crop tested in this study was Corn.
2,4 DC-21 (36.7% CS) was applied PRE at 0, 125, 170, 210, or 250 g ai/ha alone or as a tank-mix with pyroxasulfone (KIH-485, 85% WP) at 0, 50, 65, 80, or 95 g ai/ha. Pyroxasulfone plus fluthiacet-methyl (Anthem™, 23.3%) applied at 169.9 g ai/ha, s-metolachlor (Dual II Magnum®, 82.4%) applied at 1389 g, and the tank-mix of mesotrione (Callisto®, 40%) at 123 g plus s-metolachlor (Dual II Magnum®, 82.4%) at 1252 g were included as a standards for comparison. […] Thereafter flats were watered and fertilized routinely.

Pennsylvania smartweed = assay: Ex33 PRE 2,4-DC + fluthiacet-methyl + pyroxasulfone, % control 28 DAT, Colby; format: in vivo, Polygonum pensylvanicum
Text: ANTHEM® (fluthiacet-methyl, 0.69% plus pyroxasulfone, 22.61%) was included as a standard at labeled rate, Fluthiacet-methyl at 4.9 g ai/ha and pyroxasulfone at 165 g ai/ha. […] The following weeds were screened, Palmer amaranth, Pennsylvania smartweed, velvetleaf, green foxtail, morningglory, Italian ryegrass, prickly sida, and yellow nutsedge. Crops screened were cotton, lentil, mung bean, bush bean, and cowpea. […] Thereafter flats were watered and fertilized routinely.

[2] = test system: weeds; corn, wheat, cotton, cowpea, and bush bean; assay: Ex42 PRE greenhouse; format: in vivo; settings: crop and rate in the words
Text: Thereafter flats were watered and fertilized routinely.

Morningglory sp. = assay: Ex38 PRE 2,4-DC + pyroxasulfone, % control 28 DAT, Colby; format: in vivo, Ipomea spp
Text: Pyroxasulfone plus fluthiacet-methyl (ANTHEM™, 23.3%) applied at 165 g ai/ha was included as a standard for comparison. […] Thereafter flats were watered and fertilized routinely.

Barley = assay: Ex40 POST 2,4-DC + metsulfuron-methyl, crop injury 7 DAT; format: in vivo
Procedure: (§1) Treatments were applied to barley and wheat crops.
(§2) Non-ionic surfactant (NIS) was added to all treatments at 0.5% v/v. All plant species were direct seeded into 3″ plastic pots using metro-mix as growth media. At treatment common lambsquarters was 1.75″, common chickweed was 2″, wild mustard was 2.25″, wild oat was 5.5″, wild buckwheat was 2-5″, Italian ryegrass was 2-3″, wheat was 5.5″ and barley was 4.5″ in height. Plants were watered well before application and not watered 24 h after application. Plants were watered and fertilized routinely after treatment application. Each treatment was replicated four times. Treated flats were placed in randomized block design in the greenhouse.

wheat = assay: as above; format: in vivo
Procedure: as §1, §2

Velvetleaf = assay: Ex37 PRE 2,4-DC + atrazine, % control 28 DAT, Colby; format: in vivo, Abutilon theophrasti
Text: S-metolachlor (DUAL II MAGNUM®, 82.4%) at 525 g ai/h plus atrazine at 560 g ai/h was included as a standard for comparison. […] Thereafter flats were watered and fertilized routinely.

weeds = assay: Ex13 PRE greenhouse; format: in vivo; settings: 28 DAT, weed and rate in the words
Text: Pyroxasulfone (KIH-485, 85%) at 74.3 g ai/ha, pendimethalin (Prowl 3.3EC, 37.4%) at 1200 g ai/ha, or a premix of chlorsulfuron plus metsulfuron-methyl (Report Extra, 75%) at 15.8 g ai/ha were applied as commercial standards. […] Treatments were replicated 3 times and flats were watered after planting before the treatment and lightly watered after treatment application. Thereafter flats were watered and fertilized routinely.

weeds; Wheat and canola [3] = assay: Ex27 PRE greenhouse; format: in vivo; settings: weed and rate in the words
Text: The weeds tested in this study were Italian ryegrass (Lolium perenne. multiflorum, LOLMU), wild mustard (Sinapis arvensis, SINAR), annual bluegrass (Poa annua POAAN), wild oat (Avena fatua, AVEFA), blackgrass (Alopecurus myosuroides, ALOMY), common lambsquarters (Chenopodium album […] (Phalaris minor, PHAMI), common chickweed (Stellaria media, STEME), corn poppy (Papaver rhoeas PAPRH). The crops tested were Wheat and canola. […] Treatments were applied before the emergence of Italian ryegrass, wild oat, blackgrass, littleseed canarygrass, common chickweed, common lambsquarters, corn poppy, wild mustard, annual bluegrass, canola, and wheat. […] Flats were watered and fertilized routinely after treatment application. […] Wheat and corn poppy were rated at 14 and 21 DAT only.

`CC1(C)CON(Cc2ccc(Cl)cc2Cl)C1=O` [2,4-DC, 2-(2,4-dichlorophenyl)methyl-4,4-dimethyl-3-isoxazolidinone] showed an X (Wild oat; 2,4-DC alone 125 g ai/ha) of 9%, an X (Wild oat; 2,4-DC alone 170 g ai/ha) of 27% and an X (Wild oat; 2,4-DC alone 210 g ai/ha) of 27%. The X (Wild oat; 2,4-DC alone 250 g ai/ha) was 29%, the “weed control / crop safety in words” value (weeds; Wheat and canola [1]) was “alone provided control of pigweed and corn poppy at 400 g, Italian ryegrass at ≥200 g, blackgrass and lambsquarters at 400 g, and chickweed at all rates; also recorded: caused greater than 10% injury to canola at all rates and 2,4 DC was safe on wheat up to 200 g ai/ha” and the “weed control / crop safety in words” value (weeds; Corn) was “applied alone controlled (≥85% injury) black nightshade at 170 g ai/ha, did not provide control of other weeds tested when applied alone at any rate, and was safe on corn at all rates”. For the same compound, the X (Pennsylvania smartweed; 2,4-DC alone 31 g ai/ha) was 10%, the X (Pennsylvania smartweed; 2,4-DC alone 63 g ai/ha) was 23% and the X (Pennsylvania smartweed; 2,4-DC alone 125 g ai/ha) was 57%. The X (Pennsylvania smartweed; 2,4-DC alone 250 g ai/ha) was 100%, the X (Pennsylvania smartweed; 2,4-DC alone 375 g ai/ha) was 99% and the “crop safety in words” value [2] was “applied alone was safe at all rates on all crops at 14 DAT”. The “X (% control, 2,4-DC alone)” value (Morningglory sp.; PRE, 2,4-DC 50 g ai/ha) was 0%, the “X (% control, 2,4-DC alone)” value (Morningglory sp.; PRE, 2,4-DC 100 g ai/ha) was 2% and the “X (% control, 2,4-DC alone)” value (Morningglory sp.; PRE, 2,4-DC 200 g ai/ha) was 2%. For the same compound, the “X (% crop injury, 2,4-DC alone)” value (Barley; POST, 2,4-DC 125 g ai/ha) was 4%, the “X (% crop injury, 2,4-DC alone)” value (Barley; POST, 2,4-DC 170 g ai/ha) was 6% and the “X (% crop injury, 2,4-DC alone)” value (Barley; POST, 2,4-DC 210 g ai/ha) was 8%. For the same compound, the “X (% crop injury, 2,4-DC alone)” value (Barley; POST, 2,4-DC 250 g ai/ha) was 14%, the “X (% crop injury, 2,4-DC alone)” value (wheat; POST, 2,4-DC 125 g ai/ha) was 5% and the “X (% crop injury, 2,4-DC alone)” value (wheat; POST, 2,4-DC 170 g ai/ha) was 14%. The “X (% crop injury, 2,4-DC alone)” value (wheat; POST, 2,4-DC 210 g ai/ha) was 17%, the “X (% crop injury, 2,4-DC alone)” value (wheat; POST, 2,4-DC 250 g ai/ha) was 31% and the “X (% control, 2,4-DC alone)” value (Velvetleaf; PRE, 2,4-DC 50 g ai/ha) was 18%. For the same compound, the “X (% control, 2,4-DC alone)” value (Velvetleaf; PRE, 2,4-DC 100 g ai/ha) was 19%, the “X (% control, 2,4-DC alone)” value (Velvetleaf; PRE, 2,4-DC 200 g ai/ha) was 90% and the “weed control in words” value (weeds) was “alone at all rates did not control most of the species”. For the same compound, the “weed control in words” value (weeds; Wheat and canola [3]) was “provided good control of blackgrass at 375 g; controlled Italian ryegrass at ≥125 g and common chickweed at all rates”.
